The values below come from US4039535A, “7-[α-(GUANYL-1-UREIDO)PHENYLACETAMIDO]-3-SUBSTITUTED CEPHALOSPORIN ANTIBIOTICS” (Eli Lilly and Company, priority 1976, dated 1977).

Type in all cases: cell-based
For one assay, the system named is Aerobacter aerogenes. The assay can be described thus: MIC by Gradient Plate Method, in vitro antibiotic activity vs gram-negative microorganisms (Table I). The note with it: Klebsiella aerogenes, read-out: Minimum Inhibitory Conc. As to the method: (§1) In the tables the minimum inhibitory concentrations (MIC) of the listed compound verses the indicated gram-positive and gram-negative microorganisms is presented.
(§2) The MIC values were determined by the Gradient Plate Method which is essentially the method described by Bryson and Szybalski, Science, 116, 45-46 (1952).

The subject of another assay is Escherichia coli. The description is as above. The following applies: read-out: Minimum Inhibitory Conc. On the procedure: as §1, §2
Another assay deals with Klebsiella pneumoniae. Described as above. The note with it: read-out: Minimum Inhibitory Conc. On the procedure:
as §1, §2

The next assay deals with Pseudomonas aeruginosa. Described as above. The following applies: read-out: Minimum Inhibitory Conc. As to the method: as §1, §2
The test system of another assay is Salmonella heidelberg. Described as above. The following applies: Salmonella enterica, read-out: Minimum Inhibitory Conc. As to the method: as §1, §2
The subject of the next assay is Serratia marcescens. The assay is described as above. The note with it: read-out: Minimum Inhibitory Conc. On the procedure: as §1, §2
In the next assay the test system is Shigella sp. Described as above. The following applies: read-out: Minimum Inhibitory Conc. As to the method:
as §1, §2

Assay [1] has as its system penicillin resistant staphylococcus V32. Nature of the assay: MIC by Gradient Plate Method vs penicillin resistant staphylococcus clinical isolates (Table II). The note with it: read-out: Minimum Inhibitory Concentration. On the procedure: as §1, §2
The test system of assay [2] is penicillin resistant staphylococcus V41. Described as above. The following applies: read-out: Minimum Inhibitory Concentration. On the procedure: as §1, §2
In assay [3] the test system is penicillin resistant staphylococcus V84. The description is as above. The note with it: read-out: Minimum Inhibitory Concentration. As to the method:
as §1, §2

The subject of assay [4] is penicillin resistant staphylococcus X1.1. The assay is described as above. The following applies: read-out: Minimum Inhibitory Concentration. On the procedure:
as §1, §2

In assay [5] the test system is gram-negative microorganisms. The assay can be described thus: Antibiotic activity against gram-negative microorganisms, summary of Table I. The following applies: in words; MIC values in Table I; vs compound E. As to the method:
as §1, §2

≈ marks a conversion by molar mass, not a printed value. Where two headings read alike, the source gives them in different places.

Regarding `Cc1nnc(SCC2=C(C(=O)O)N3C(=O)C(NC(=O)[C@H](NC(=O)NC(=N)N)c4ccc(O)cc4)C3SC2)s1` (stereo partly drawn) [D, 7-[d-α-(3-guanyl-1-ureido)-4-hydroxyphenylacetamido]-3-(5-methyl-1,3,4-thiadiazol-2-yl-thiomethyl)-3-cephem-4-carboxylic acid], the MIC with Aerobacter aerogenes is 1 µg/mL (≈ 1.73 µM); in the assay with Escherichia coli, 6 µg/mL (≈ 10.4 µM); with Klebsiella pneumoniae it was 1 µg/mL (≈ 1.73 µM); in the assay with Pseudomonas aeruginosa it was 50 µg/mL (≈ 86.4 µM); in the assay with Salmonella heidelberg it was 1 µg/mL (≈ 1.73 µM); in the assay with Serratia marcescens, 50 µg/mL (≈ 86.4 µM). In addition, the MIC with Shigella sp. turned out to be 4.5 µg/mL (≈ 7.78 µM); in assay [1] (N.S. = in the absence of serum) it was 1 µg/mL (≈ 1.73 µM); in assay [1] (S = in the presence of serum), 12 µg/mL; in [2] (N.S. = in the absence of serum), 1 µg/mL (≈ 1.73 µM); in [2] (S = in the presence of serum), 6 µg/mL; in [3] (N.S. = in the absence of serum), 1 µg/mL (≈ 1.73 µM). In addition, the MIC in assay [3] (S = in the presence of serum) amounted to 2 µg/mL; in assay [4] (N.S. = in the absence of serum) it was 1 µg/mL (≈ 1.73 µM); in assay [4] (S = in the presence of serum) it was 1 µg/mL. For the same molecule, the “activity against gram-negative microorganisms compared with known compound E” value (“activity … compared with known compound E” below) in assay [5] was “significantly greater activity against gram-negative microorganisms than the known compound, E”.

`Cc1nnc(SCC2=C(C(=O)O)N3C(=O)C(NC(=O)[C@H](NC(=O)NC(=N)N)c4ccccc4)C3SC2)s1` (stereo partly drawn) [B, 7-[d-α-(3-guanyl-1-ureido)phenylacetamido]-3-(5-methyl-1,3,4-thiadiazol-2-yl-thiomethyl)-3-cephem-4-carboxylid acid]: the MIC was found to be 1 µg/mL (≈ 1.78 µM) in the assay on Aerobacter aerogenes; 8.7 µg/mL (≈ 15.5 µM) in the assay on Escherichia coli; 1 µg/mL (≈ 1.78 µM) in the assay on Klebsiella pneumoniae; 104 µg/mL (≈ 185 µM) with Pseudomonas aeruginosa; 6 µg/mL (≈ 10.7 µM) with Salmonella heidelberg; 14.3 µg/mL (≈ 25.4 µM) with Serratia marcescens. Besides, the MIC with Shigella sp. was 5.5 µg/mL (≈ 9.78 µM); in assay [1] (N.S. = in the absence of serum), 1 µg/mL (≈ 1.78 µM); in assay [1] (S = in the presence of serum), over 20 µg/mL; in assay [2] (N.S. = in the absence of serum) it was 1 µg/mL (≈ 1.78 µM); in assay [2] (S = in the presence of serum), over 20 µg/mL; in assay [3] (N.S. = in the absence of serum), 0.6 µg/mL (≈ 1.07 µM). For the same molecule, the figures for the MIC in assay [3] (S = in the presence of serum), in assay [4] (N.S. = in the absence of serum) and in assay [4] (S = in the presence of serum) were 10 µg/mL, 0.6 µg/mL (≈ 1.07 µM) and 10 µg/mL, respectively. In addition, the “activity … compared with known compound E” value in assay [5] is “significantly greater activity against gram-negative microorganisms than the known compound, E”.

As to `CC(=O)OCC1=C(C(=O)O)N2C(=O)C(NC(=O)[C@H](NC(=O)NC(=N)N)c3ccccc3)C2SC1` (stereo partly drawn) [E, 7-[d-α-(3-guanyl-1-ureido)phenylacetamido]-3-acetoxymethyl-3-cephem-4-carboxylic acid, reference compound], the MIC with Aerobacter aerogenes is 4.5 µg/mL (≈ 9.17 µM); in the assay on Escherichia coli it was 13.8 µg/mL (≈ 28.1 µM); in the assay with Klebsiella pneumoniae, 21.5 µg/mL (≈ 43.8 µM); with Pseudomonas aeruginosa, 100 µg/mL (≈ 204 µM); in the assay with Salmonella heidelberg it was 6 µg/mL (≈ 12.2 µM); in the assay with Serratia marcescens, 31.5 µg/mL (≈ 64.2 µM). Moreover, the MIC in the assay on Shigella sp. was found to be 16.3 µg/mL (≈ 33.2 µM); in assay [1] (N.S. = in the absence of serum) it was 0.7 µg/mL (≈ 1.43 µM); in assay [1] (S = in the presence of serum), 1 µg/mL; in [2] (N.S. = in the absence of serum) it was 0.5 µg/mL (≈ 1.02 µM); in [2] (S = in the presence of serum), 1 µg/mL; in assay [3] (N.S. = in the absence of serum), 0.6 µg/mL (≈ 1.22 µM). The MIC in assay [3] (S = in the presence of serum) is 1 µg/mL; in [4] (N.S. = in the absence of serum) it was 0.6 µg/mL (≈ 1.22 µM); in assay [4] (S = in the presence of serum), 1 µg/mL.

`Cn1nnnc1SCC1=C(C(=O)O)N2C(=O)C(NC(=O)[C@H](NC(=O)NC(=N)N)c3ccccc3)C2SC1` (stereo partly drawn) [A, 7-[D-α-(3-Guanyl-1-ureido)phenylacetamido]-3-(1-methyl-1H-tetrazol-5yl-thiomethyl)-3-cephem-4-carboxylic acid]: the MIC in the assay with Aerobacter aerogenes was 0.7 µg/mL (≈ 1.28 µM); with Escherichia coli it was 2 µg/mL (≈ 3.66 µM); with Klebsiella pneumoniae, 1 µg/mL (≈ 1.83 µM); with Pseudomonas aeruginosa, 53.5 µg/mL (≈ 97.9 µM); in the assay on Salmonella heidelberg it was 0.8 µg/mL (≈ 1.46 µM); in the assay with Serratia marcescens, 7 µg/mL (≈ 12.8 µM). For the same molecule, the MIC in the assay with Shigella sp. amounted to 2 µg/mL (≈ 3.66 µM); in [1] (N.S. = in the absence of serum) it was 1 µg/mL (≈ 1.83 µM); in [1] (S = in the presence of serum) it was 9 µg/mL; in assay [2] (N.S. = in the absence of serum) it was 0.7 µg/mL (≈ 1.28 µM); in assay [2] (S = in the presence of serum), 1 µg/mL; in [3] (N.S. = in the absence of serum), 0.6 µg/mL (≈ 1.1 µM). The figures for the MIC in assay [3] (S = in the presence of serum), in [4] (N.S. = in the absence of serum) and in [4] (S = in the presence of serum) were 1 µg/mL, 0.5 µg/mL (≈ 0.915 µM) and under 0.1 µg/mL, respectively. The “activity … compared with known compound E” value in assay [5] was “significantly greater activity against gram-negative microorganisms than the known compound, E”.

As for `Cn1nnnc1SCC1=C(C(=O)O)N2C(=O)C(NC(=O)[C@H](NC(=O)NC(=N)N)c3ccc(O)cc3)C2SC1` (stereo partly drawn) [C, 7-[d-α-(3-guanyl-1-ureido)-4-hydroxyphenylacetamido]-3-(1-methyl-1H-tetrazol-5-yl-thiomethyl)-3-cephem-4-carboxylic acid], the MIC in the assay with Aerobacter aerogenes came out at 0.1 µg/mL (≈ 0.178 µM); in the assay on Escherichia coli, 0.7 µg/mL (≈ 1.24 µM); in the assay on Klebsiella pneumoniae, 1.2 µg/mL (≈ 2.13 µM); in the assay on Pseudomonas aeruginosa, 23 µg/mL (≈ 40.9 µM); in the assay on Salmonella heidelberg it was 0.2 µg/mL (≈ 0.355 µM); in the assay with Serratia marcescens it was 21 µg/mL (≈ 37.3 µM). The MIC in the assay on Shigella sp. is 0.7 µg/mL (≈ 1.24 µM); in assay [1] (N.S. = in the absence of serum) it was 1 µg/mL (≈ 1.78 µM); in assay [1] (S = in the presence of serum), 10 µg/mL; in [2] (N.S. = in the absence of serum) it was under 0.1 µg/mL; in assay [2] (S = in the presence of serum), 10 µg/mL; in [3] (N.S. = in the absence of serum), under 0.1 µg/mL. The MIC in [3] (S = in the presence of serum) was 1 µg/mL; in assay [4] (N.S. = in the absence of serum), under 0.1 µg/mL; in assay [4] (S = in the presence of serum), 0.6 µg/mL. Further, in assay [5], the “activity … compared with known compound E” value was “significantly greater activity against gram-negative microorganisms than the known compound, E”.
